Assay results taken from PMC9716558, “A Chiral ^19F NMR Reporter of Foldamer Conformation in Bilayers” (Journal of the American Chemical Society, 2022).
Non-standard residues stand in square brackets, D forms with d. Residues, ends and D or L forms follow the SMILES beside them. *: point of attachment. d(αMeV) = CC(C)[C@@](C)(N)C(=O)O; αMeV = CC(C)[C@](C)(N)C(=O)O; X1 = C[C@@H](N*)C(F)(F)F; Cbz = O=C(OCc1ccccc1)*; Aib = CC(C)(N)C(=O)O

Test: Maximum solubility of foldamer in chloroform (saturated solution, 1H NMR)
Format: physicochemical
Details: thermodynamic, dissolved in CDCl3 until saturated; concentration by 1H NMR against a known concentration of CH2Cl2 as internal reference
Protocol: 9. Quantification of foldamer solubility and self-association in CHCl3
9.1 Experimental procedure (dilution)
Compounds 5d (L-αMeVal) and 5e (D-αMeVal) were dissolved in CDCl3 until saturated solutions were formed.
The initial concentration of each sample was measured using a known concentration of CH2Cl2 as an internal […]
Additional volumes of CDCl3 were added to the initial solution and the 1H NMR spectrum at each concentration […]
The binding isotherms were generated using an Excel spreadsheet macro developed by Sanderson.S7a The Solver add-in for Excel was used to calculate the best fit to the NMR data using the ‘GRG onlinear Solvin […]
The following equilibrium is used to calculate the binding isotherms:
Where Kdim is the microscopic association constant and n = 2.
The following equation is used to calculate the binding isotherm: […]
δfree is the free chemical shift of the host
δobs is the observed chemical shift […]
The concentration of the dimeric complex (H)2 is calculated iteratively by solving the following equations: […]
The concentration of free host is calculated according to the concentration difference […]
The propensity of the L-αMeVal-capped foldamer 5d and D-αMeVal-capped foldamer 5e to self-associate was investigated in chloroform by performing a dilution study,S7 which at the same time quantified the solubility of these compounds in this solvent. […]

maximum solubility in CHCl3 / chloroform-d [mM]	Structure (SMILES)
50	CC(C)[C@@](C)(NC(=O)OCc1ccccc1)C(=O)NC(C)(C)C(=O)NC(C)(C)C(=O)NC(C)(C)C(=O)NC(C)(C)C(=O)N[C@H](C)C(F)(F)F [5e, Cbz(D-MeVal)Aib4(R-TFEA)] (Cbz-[d(αMeV)][Aib][Aib][Aib][Aib]-X1)
288	CC(C)[C@](C)(NC(=O)OCc1ccccc1)C(=O)NC(C)(C)C(=O)NC(C)(C)C(=O)NC(C)(C)C(=O)NC(C)(C)C(=O)N[C@H](C)C(F)(F)F [5d, Cbz(L-MeVal)Aib4(R-TFEA)] (Cbz-[αMeV][Aib][Aib][Aib][Aib]-X1)
